Measurements as given in patent US10336762B2 (priority 2017, dated 2019).
Like-named read-outs stand apart in the source and are kept apart here.

How the values were obtained:
IRAK4 enzyme = IRAK4 enzyme (Homo sapiens (Human), UniProt Q9NWZ3); test: biochemical; type: biochemical; conditions: IRAK4 enzyme, 500 μM ATP
TNFα = test: cells; type: cell-based, human; conditions: Homo sapiens, Monocyte, LPS-stimulated human monocytes, read-out: EC50 TNF

IRAK4 enzyme, sequence (Q9NWZ3 whole entry): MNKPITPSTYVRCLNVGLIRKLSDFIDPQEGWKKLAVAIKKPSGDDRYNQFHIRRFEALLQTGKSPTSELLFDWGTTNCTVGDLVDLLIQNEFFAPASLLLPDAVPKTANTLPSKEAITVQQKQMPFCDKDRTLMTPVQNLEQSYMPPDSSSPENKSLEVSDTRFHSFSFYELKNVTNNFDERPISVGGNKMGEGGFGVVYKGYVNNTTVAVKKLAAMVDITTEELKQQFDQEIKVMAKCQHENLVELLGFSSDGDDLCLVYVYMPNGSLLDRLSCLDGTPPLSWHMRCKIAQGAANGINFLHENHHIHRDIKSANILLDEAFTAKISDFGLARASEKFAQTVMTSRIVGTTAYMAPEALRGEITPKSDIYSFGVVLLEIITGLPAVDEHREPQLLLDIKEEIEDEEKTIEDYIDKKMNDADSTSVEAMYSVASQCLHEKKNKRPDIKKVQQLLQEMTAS

CC(C)(O)[C@H](F)CNC(=O)c1cnc(-c2ccc3cc(C#N)cnn23)cc1NC12CCC(C(=O)NC3CC3)(CC1)CC2 [Example 406, (R)-6-(3-cyanopyrrolo[1,2-b]pyridazin-7-yl)-4-((4-(cyclopropylcarbamoyl)bicyclo[2.2.2]octan-1-yl)amino)-N-(2-fluoro-3-hydroxy-3-methylbutyl) nicotinamide]
IC50 (IRAK4 enzyme; TR-FRET (HTRF)): 1 nM | EC50 (TNFα; TNFα content): 33 nM

CC(C)(O)[C@H](F)CNC(=O)c1cnc(-c2ccc3cc(C#N)cnn23)cc1N[C@@H]1CN2CCC1CC2 [Example 263, 6-(3-cyanopyrrolo[1,2-b]pyridazin-7-yl)-N-((R)-2-fluoro-3-hydroxy-3-methylbutyl)-4-(((S)-quinuclidin-3-yl)amino)nicotinamide]
IC50 (IRAK4 enzyme; TR-FRET): 3 nM | EC50 (TNFα; TNFα content): 193 nM

COC(=O)N1CCC(Nc2cc(-c3ccc4cc(C#N)cnn34)ncc2C(=O)NC[C@@H](F)C(C)(C)O)CC1 [Example 242, (R)-methyl 4-((2-(3-cyano-pyrrolo[1,2-b]pyridazin-7-yl)-5-((2-fluoro-3-hydroxy-3-methylbutyl)carbamoyl)pyridin-4-yl)amino)piperidine-1-carboxylate]
IC50 (IRAK4 enzyme; TR-FRET): 2 nM | EC50 (TNFα; TNFα content): 191 nM

CC(C)(O)[C@H](F)CNC(=O)c1cnc(-c2ccc3cc(C#N)cnn23)cc1N[C@H]1C[C@H](CNC(=O)CC(F)F)C1 [Example 656, 6-(3-cyanopyrrolo[1,2-b]pyridazin-7-yl)-4-(((1r,3R)-3-((3,3-difluoropropanamido)methyl)cyclobutyl)amino)-N-((R)-2-fluoro-3-hydroxy-3-methylbutyl) nicotinamide]
IC50 (IRAK4 enzyme; TR-FRET (HTRF)): < 1 nM | EC50 (TNFα; TNFα content): 40 nM

COC(=O)Nc1ccc(Nc2cc(-c3ccc4cc(C#N)cnn34)ncc2C(=O)NC[C@@H](F)C(C)(C)O)cn1 [Example 888, methyl (R)-(5-((2-(3-cyanopyrrolo[1,2-b]pyridazin-7-yl)-5-((2-fluoro-3-hydroxy-3-methylbutyl)carbamoyl)pyridin-4-yl)amino)pyridin-2-yl)carbamate]
IC50 (IRAK4 enzyme; TR-FRET): < 1 nM | EC50 (TNFα; TNFα by TR-FRET): 21 nM

CC(C)Nc1cc(-c2ccc3cc(C#N)cnn23)ncc1C(=O)NC1CC1CO (stereo not shown) [Example 45, 6-(3-cyanopyrrolo[1,2-b]pyridazin-7-yl)-N-(2-(hydroxymethyl)cyclopropyl)-4-(isopropylamino) nicotinamide]
IC50 (IRAK4 enzyme; TR-FRET): 10 nM | EC50 (TNFα; TNFα content): 255 nM

CC(C)(O)[C@H](F)CNC(=O)c1cnc(-c2ccc3cc(C#N)cnn23)cc1Nc1cnn([C@@H]2CCNC2)c1 [Example 208, 6-(3-cyanopyrrolo[1,2-b]pyridazin-7-yl)-N-((R)-2-fluoro-3-hydroxy-3-methylbutyl)-4-((1-((R)-pyrrolidin-3-yl)-1H-pyrazol-4-yl)amino) nicotinamide]
IC50 (IRAK4 enzyme; TR-FRET): < 1 nM | EC50 (TNFα; TNFα content): 92 nM

CC(C)(O)[C@H](F)CNC(=O)c1cnc(-c2ccc3cc(C#N)cnn23)cc1N[C@H]1C[C@H](CNC(=O)C23CC(C2)C3)C1 [Example 937, 4-(((1r,3R)-3-((bicyclo[1.1.1]pentane-1-carboxamido)methyl)cyclobutyl)amino)-6-(3-cyanopyrrolo[1,2-b]pyridazin-7-yl)-N-((R)-2-fluoro-3-hydroxy-3-methylbutyl)nicotinamide]
IC50 (IRAK4 enzyme; TR-FRET): 2 nM | EC50 (TNFα; TNFα by TR-FRET): 133 nM

COc1cc(Nc2cc(-c3ccc4cc(C#N)cnn34)ncc2C(=O)NC[C@@H](F)C(C)(C)O)ccc1C(N)=O [Example 604, (R)-4-((4-carbamoyl-3-methoxyphenyl)amino)-6-(3-cyanopyrrolo[1,2-b]pyridazin-7-yl)-N-(2-fluoro-3-hydroxy-3-methylbutyl)nicotinamide]
IC50 (IRAK4 enzyme; TR-FRET (HTRF)): 7 nM | EC50 (TNFα; TNFα content): 283 nM

Cn1cncc1CNC(=O)c1cnc(-c2ccc3cc(C#N)cnn23)cc1NC12CCC(O)(CC1)CC2 [Example 925, 6-(3-cyanopyrrolo[1,2-b]pyridazin-7-yl)-4-((4-hydroxybicyclo[2.2.2]octan-1-yl)amino)-N-((1-methyl-1H-imidazol-5-yl)methyl)nicotinamide]
IC50 (IRAK4 enzyme; TR-FRET): 4 nM | EC50 (TNFα; TNFα by TR-FRET): 583 nM

CC(C)(O)[C@H](F)CNC(=O)c1cnc(-c2ccc3cc(C#N)cnn23)cc1NC[C@@H](F)C(C)(C)O [Example 560, 6-(3-cyanopyrrolo[1,2-b]pyridazin-7-yl)-N-((R)-2-fluoro-3-hydroxy-3-methylbutyl)-4-(((R)-2-fluoro-3-hydroxy-3-methylbutyl)amino) nicotinamide]
IC50 (IRAK4 enzyme; TR-FRET (HTRF)): < 1 nM | EC50 (TNFα; TNFα content): 83 nM

N#Cc1cnn2c(-c3cc(NC4COC4)c(C(=O)N[C@H]4CC[C@H](NC(=O)C5CC5)CC4)cn3)ccc2c1 [Example 526, 6-(3-cyanopyrrolo[1,2-b]pyridazin-7-yl)-N-((1r,4r)-4-(cyclopropane-carboxamido)cyclohexyl)-4-(oxetan-3-ylamino) nicotinamide]
IC50 (IRAK4 enzyme; TR-FRET (HTRF)): 1 nM | EC50 (TNFα; TNFα content): 99 nM

COCCNc1cc(-c2ccc3cc(C#N)cnn23)ncc1C(=O)NC[C@@H](F)C(C)(C)O [Example 100, (R)-6-(3-cyanopyrrolo[1,2-b]pyridazin-7-yl)-N-(2-fluoro-3-hydroxy-3-methylbutyl)-4-((2-methoxyethyl)amino) nicotinamide]
IC50 (IRAK4 enzyme; TR-FRET): 4 nM | EC50 (TNFα; TNFα content): 195 nM

CC(C)(O)[C@H](F)CNC(=O)c1cnc(-c2ccc3cc(C#N)cnn23)cc1Nc1cnn([C@@H]2CNC[C@H]2F)c1 [Example 882, 6-(3-cyanopyrrolo[1,2-b]pyridazin-7-yl)-N-((R)-2-fluoro-3-hydroxy-3-methylbutyl)-4-((1-((3R,4R)-4-fluoro-pyrrolidin-3-yl)-1H-pyrazol-4-yl)amino) nicotinamide]
IC50 (IRAK4 enzyme; TR-FRET): < 1 nM | EC50 (TNFα; TNFα by TR-FRET): 22 nM

Cn1cc(CNc2cc(-c3ccc4cc(C#N)cnn34)ncc2C(=O)NC[C@@H](F)C(C)(C)O)cn1 [Example 104, (R)-6-(3-cyanopyrrolo[1,2-b]pyridazin-7-yl)-N-(2-fluoro-3-hydroxy-3-methylbutyl)-4-(((1-methyl-1H-pyrazol-4-yl)methyl)amino) nicotinamide]
IC50 (IRAK4 enzyme; TR-FRET): 6 nM | EC50 (TNFα; TNFα content): 274 nM

CC(C)(O)[C@H](F)CNC(=O)c1cnc(-c2ccc3cc(C#N)cnn23)cc1N[C@@H]1CC[C@@H](N)C1 [Example 308, 4-(((1R,3R)-3-aminocyclopentyl)amino)-6-(3-cyano-pyrrolo[1,2-b]pyridazin-7-yl)-N-((R)-2-fluoro-3-hydroxy-3-methylbutyl) nicotinamide]
IC50 (IRAK4 enzyme; TR-FRET): < 1 nM | EC50 (TNFα; TNFα content): 46 nM

CC(C)Nc1cc(-c2ccc3cc(C#N)cnn23)ncc1C(=O)NC1CCS(=O)(=O)CC1 [Example 139, 6-(3-cyanopyrrolo[1,2-b]pyridazin-7-yl)-N-(1,1-dioxidotetrahydro-2H-thiopyran-4-yl)-4-(isopropylamino) nicotinamide]
IC50 (IRAK4 enzyme; TR-FRET): 19 nM | EC50 (TNFα; TNFα content): 254 nM

N#Cc1cnn2c(-c3cc(NC45CCC(O)(CC4)CC5)c(C(=O)NCC(=O)N4CCCC4)cn3)ccc2c1 [Example 790, 6-(3-cyanopyrrolo[1,2-b]pyridazin-7-yl)-4-((4-hydroxybicyclo[2.2.2]octan-1-yl)amino)-N-(2-oxo-2-(pyrrolidin-1-yl)ethyl)nicotinamide]
IC50 (IRAK4 enzyme; TR-FRET (HTRF)): < 1 nM | EC50 (TNFα; TNFα content): 21 nM

CC(=O)N1CCC[C@H](Nc2cc(-c3ccc4cc(C#N)cnn34)ncc2C(=O)NC[C@@H](F)C(C)(C)O)C1 [Example 256, 4-(((S)-1-acetylpiperidin-3-yl)amino)-6-(3-cyano-pyrrolo[1,2-b]pyridazin-7-yl)-N-((R)-2-fluoro-3-hydroxy-3-methylbutyl)nicotinamide]
IC50 (IRAK4 enzyme; TR-FRET): 2 nM | EC50 (TNFα; TNFα content): 389 nM

CC(C)Oc1cncc(Nc2cc(-c3ccc4cc(C#N)cnn34)ncc2C(=O)NC[C@@H](F)C(C)(C)O)c1 [Example 851, (R)-6-(3-cyanopyrrolo[1,2-b]pyridazin-7-yl)-N-(2-fluoro-3-hydroxy-3-methylbutyl)-4-((5-isopropoxypyridin-3-yl)amino)nicotinamide]
IC50 (IRAK4 enzyme; TR-FRET): < 1 nM | EC50 (TNFα; TNFα by TR-FRET): 12 nM

CC(C)(O)[C@H](F)CNC(=O)c1cnc(-c2ccc3cc(C#N)cnn23)cc1Nc1cccc(F)c1 [Example 384, (R)-6-(3-cyanopyrrolo[1,2-b]pyridazin-7-yl)-N-(2-fluoro-3-hydroxy-3-methylbutyl)-4-((3-fluorophenyl)amino) nicotinamide]
IC50 (IRAK4 enzyme; TR-FRET): 1 nM | EC50 (TNFα; TNFα content): 129 nM

COC(=O)NCC(C)(C)CNc1cc(-c2ccc3cc(C#N)cnn23)ncc1C(=O)NC[C@@H](F)C(C)(C)O [Example 718, (R)-methyl (3-((2-(3-cyano-pyrrolo[1,2-b]pyridazin-7-yl)-5-((2-fluoro-3-hydroxy-3-methylbutyl)carbamoyl)pyridin-4-yl)amino)-2,2-dimethylpropyl)carbamate]
IC50 (IRAK4 enzyme; TR-FRET (HTRF)): 2 nM | EC50 (TNFα; TNFα content): 280 nM

CC(C)(O)[C@H](F)CNC(=O)c1cnc(-c2ccc3cc(C#N)cnn23)cc1Nc1ccc2c(c1)C1(CC1)C(=O)N2 [Example 665, (R)-6-(3-cyanopyrrolo[1,2-b]pyridazin-7-yl)-N-(2-fluoro-3-hydroxy-3-methylbutyl)-4-((2′-oxospiro[cyclopropane-1,3′-indolin]-5′-yl)amino)nicotinamide]
IC50 (IRAK4 enzyme; TR-FRET (HTRF)): 8 nM | EC50 (TNFα; TNFα content): 299 nM

CC(C)(O)[C@H](F)CNC(=O)c1cnc(-c2ccc3cc(C#N)cnn23)cc1Nc1cnn(-c2ccncc2)c1 [Example 761, (R)-6-(3-cyanopyrrolo[1,2-b]pyridazin-7-yl)-N-(2-fluoro-3-hydroxy-3-methylbutyl)-4-((1-(pyridin-4-yl)-1H-pyrazol-4-yl)amino) nicotinamide]
IC50 (IRAK4 enzyme; TR-FRET (HTRF)): < 1 nM | EC50 (TNFα; TNFα content): 26 nM

CC(C)(O)[C@H](F)CNC(=O)c1cnc(-c2ccc3cc(C#N)cnn23)cc1N[C@H]1CC[C@H](N2CCOCC2)CC1 [Example 822, 6-(3-cyanopyrrolo[1,2-b]pyridazin-7-yl)-N-((R)-2-fluoro-3-hydroxy-3-methylbutyl)-4-(((1r,4R)-4-morpholinocyclohexyl)amino)nicotinamide]
IC50 (IRAK4 enzyme; TR-FRET): 1 nM | EC50 (TNFα; TNFα by TR-FRET): 73 nM

CC(C)(O)[C@H](F)CNC(=O)c1cnc(-c2ccc3cc(C#N)cnn23)cc1Nc1cnc(C#N)nc1 [Example 596, (R)-4-((2-cyano-pyrimidin-5-yl)amino)-6-(3-cyanopyrrolo[1,2-b]pyridazin-7-yl)-N-(2-fluoro-3-hydroxy-3-methylbutyl) nicotinamide]
IC50 (IRAK4 enzyme; TR-FRET (HTRF)): 3 nM | EC50 (TNFα; TNFα content): > 10000 nM
